Test results reported in ChEMBL document CHEMBL1201862, “PubChem BioAssay data set” (2004).
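The compound was tested at five concentrations on cells cultured in 96-well plates, with a 48-hour exposure period. GI50: concentration for 50% inhibition of growth.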 Active and inactive are the calls of the source. Rule as the data show it: active = GI50 up to about 1.1 µM and inactive = higher.

Legend:
Experiment in all cases: NCI anticancer screen, dose series, 48 h
RXF 631 = system: RXF 631
RXF 393 = system: RXF 393
HOP-62 = system: HOP-62
UO-31 = system: UO-31
Malme-3M = system: Malme-3M
LOX IMVI = system: LOX IMVI
SF-539 = system: SF-539
DMS-273 = system: DMS-273
SK-MEL-2 = system: SK-MEL-2
SF-268 = system: SF-268
SW-620 = system: SW-620
U-251 = system: U-251
SN12C = system: SN12C
HL-60 = system: HL-60
KM12 = system: KM12
LXFL 529 = system: LXFL 529
HCT-15 = system: HCT-15
OVCAR-4 = system: OVCAR-4
K562 = system: K562
RPMI-8226 = system: RPMI-8226
KM-20L2 = system: KM-20L2
EKVX = system: EKVX
UACC-62 = system: UACC-62
SNB-75 = system: SNB-75
SK-OV-3 = system: SK-OV-3
UACC-257 = system: UACC-257
OVCAR-3 = system: OVCAR-3
SK-MEL-28 = system: SK-MEL-28
NCI-H522 = system: NCI-H522
NCI-H226 = system: NCI-H226
MOLT-4 = system: MOLT-4
CAKI-1 = system: CAKI-1
OVCAR-8 = system: OVCAR-8
XF498 = system: XF498
786-0 = system: 786-0
HCC 2998 = system: HCC 2998
HT-29 = system: HT-29
M19-MEL = system: M19-MEL
A498 = system: A498
TK-10 = system: TK-10
HOP-18 = system: HOP-18
DLD-1 = system: DLD-1
ACHN = system: ACHN
NCI-H460 = system: NCI-H460
A549 = system: A549
M14 = system: M14
IGROV-1 = system: IGROV-1
NCI-H23 = system: NCI-H23
SNB-19 = system: SNB-19
SF-295 = system: SF-295
CCRF-CEM = system: CCRF-CEM
OVCAR-5 = system: OVCAR-5
COLO 205 = system: COLO 205
SR = system: SR
SK-MEL-5 = system: SK-MEL-5
HOP-92 = system: HOP-92
SNB-78 = system: SNB-78
HCT-116 = system: HCT-116

Structure (SMILES): CCOC(=O)C1S/C(=N\c2ccc(Cl)c(Cl)c2)N=C1C (stereo not given)
- GI50 (RXF 631): 58.6 µM (inactive)
- GI50 (RXF 393): 13 µM (inactive)
- GI50 (HOP-62): 56.9 µM (inactive)
- GI50 (UO-31): 92.9 µM (inactive)
- GI50 (Malme-3M): 51.6 µM (inactive)
- GI50 (LOX IMVI): 23.4 µM (inactive)
- GI50 (SF-539): 34 µM (inactive)
- GI50 (DMS-273): 41.2 µM (inactive)
- GI50 (SK-MEL-2): 95.1 µM (inactive)
- GI50 (SF-268): 54.6 µM (inactive)
- GI50 (SW-620): 38 µM (inactive)
- GI50 (U-251): 48.3 µM (inactive)
- GI50 (SN12C): 19.6 µM (inactive)
- GI50 (HL-60): 20.4 µM (inactive)
- GI50 (KM12): 27.9 µM (inactive)
- GI50 (LXFL 529): 34.4 µM (inactive)
- GI50 (HCT-15): 20.8 µM
- GI50 (OVCAR-4): 20.3 µM (inactive)
- GI50 (K562): 13.4 µM (inactive)
- GI50 (RPMI-8226): 17.8 µM (inactive)
- GI50 (KM-20L2): 20.9 µM (inactive)
- GI50 (EKVX): > 100 µM (inactive)
- GI50 (UACC-62): 96.8 µM (inactive)
- GI50 (SNB-75): 29.9 µM (inactive)
- GI50 (SK-OV-3): 53.8 µM (inactive)
- GI50 (UACC-257): 87.1 µM (inactive)
- GI50 (OVCAR-3): 17.9 µM (inactive)
- GI50 (SK-MEL-28): 73.8 µM (inactive)
- GI50 (NCI-H522): 24.7 µM (inactive)
- GI50 (NCI-H226): 23.4 µM (inactive)
- GI50 (MOLT-4): 18.8 µM (inactive)
- GI50 (CAKI-1): 35.1 µM (inactive)
- GI50 (OVCAR-8): 35.4 µM (inactive)
- GI50 (XF498): 35.6 µM (inactive)
- GI50 (786-0): 17.5 µM (inactive)
- GI50 (HCC 2998): > 100 µM (inactive)
- GI50 (HT-29): 19.7 µM (inactive)
- GI50 (M19-MEL): 26.2 µM (inactive)
- GI50 (A498): 26 µM (inactive)
- GI50 (TK-10): 76.7 µM (inactive)
- GI50 (HOP-18): 96.8 µM (inactive)
- GI50 (DLD-1): 25.1 µM (inactive)
- GI50 (ACHN): 29.5 µM (inactive)
- GI50 (NCI-H460): 49.8 µM (inactive)
- GI50 (A549): 28.4 µM (inactive)
- GI50 (M14): 34.6 µM (inactive)
- GI50 (IGROV-1): 48.8 µM (inactive)
- GI50 (NCI-H23): 36.7 µM (inactive)
- GI50 (SNB-19): 45.6 µM (inactive)
- GI50 (SF-295): 29.7 µM (inactive)
- GI50 (CCRF-CEM): 13.2 µM (inactive)
- GI50 (OVCAR-5): 44.1 µM (inactive)
- GI50 (COLO 205): 29 µM (inactive)

Structure (SMILES): COc1cc(/C=C/C2=C(C#N)C(=O)OC2(C)C)ccc1O
- GI50 (RXF 631): 93.1 µM (inactive)
- GI50 (SR): 14.2 µM (inactive)
- GI50 (RXF 393): 36.9 µM (inactive)
- GI50 (HOP-62): 43.6 µM (inactive)
- GI50 (UO-31): 44.9 µM (inactive)
- GI50 (Malme-3M): > 100 µM (inactive)
- GI50 (LOX IMVI): 20.7 µM (inactive)
- GI50 (SK-MEL-5): > 100 µM (inactive)
- GI50 (DMS-273): > 100 µM (inactive)
- GI50 (SK-MEL-2): > 100 µM (inactive)
- GI50 (HOP-92): > 100 µM (inactive)
- GI50 (SF-268): 46.6 µM (inactive)
- GI50 (SW-620): 35.3 µM (inactive)
- GI50 (U-251): 17.4 µM (inactive)
- GI50 (SN12C): 55 µM (inactive)
- GI50 (HL-60): 22.4 µM (inactive)
- GI50 (KM12): 30.9 µM (inactive)
- GI50 (HCT-15): 28 µM
- GI50 (K562): 29.1 µM (inactive)
- GI50 (SNB-78): > 100 µM (inactive)
- GI50 (RPMI-8226): 20.4 µM (inactive)
- GI50 (KM-20L2): 58.5 µM (inactive)
- GI50 (EKVX): > 100 µM (inactive)
- GI50 (UACC-62): > 100 µM (inactive)
- GI50 (SNB-75): 82.8 µM (inactive)
- GI50 (SK-OV-3): > 100 µM (inactive)
- GI50 (UACC-257): > 100 µM (inactive)
- GI50 (OVCAR-3): > 100 µM (inactive)
- GI50 (SK-MEL-28): > 100 µM (inactive)
- GI50 (NCI-H522): 16.7 µM (inactive)
- GI50 (NCI-H226): 37.3 µM (inactive)
- GI50 (MOLT-4): > 100 µM (inactive)
- GI50 (CAKI-1): > 100 µM (inactive)
- GI50 (OVCAR-8): 51.8 µM (inactive)
- GI50 (HCC 2998): 71.9 µM (inactive)
- GI50 (HT-29): 48.2 µM (inactive)
- GI50 (M19-MEL): > 100 µM (inactive)
- GI50 (A498): > 100 µM (inactive)
- GI50 (TK-10): > 100 µM (inactive)
- GI50 (HOP-18): > 100 µM (inactive)
- GI50 (DLD-1): 54 µM (inactive)
- GI50 (ACHN): 34.2 µM (inactive)
- GI50 (NCI-H460): 38.9 µM (inactive)
- GI50 (A549): > 100 µM (inactive)
- GI50 (IGROV-1): > 100 µM (inactive)
- GI50 (NCI-H23): > 100 µM (inactive)
- GI50 (SNB-19): > 100 µM (inactive)
- GI50 (HCT-116): 37.9 µM (inactive)
- GI50 (SF-295): 46.1 µM (inactive)
- GI50 (CCRF-CEM): 13.3 µM (inactive)
- GI50 (OVCAR-5): > 100 µM (inactive)
- GI50 (COLO 205): 45.4 µM (inactive)
